Measured values as given in the NIST ThermoML archive (doi:10.1021/acs.jced.8b00680).
Values joined by “and” are separate entries in the source; they are usually repeats but may differ in a detail not shown here. Equal values may be shown once. Numbers after ± are expanded uncertainties.

Details: Liquid, Ebulliometric method (Recirculating still)

CCCCCCCCCCCCCC [tetradecane]
Details | vapor or sublimation pressure [kPa]
489.17 K | 40 ± 0.85
489.26 K | 40.04 ± 0.86
491.29 K | 42.42 ± 0.86
492.53 K | 43.8 ± 0.86
495.18 K | 46.96 ± 0.87
496.08 K | 48.13 ± 0.88
497.96 K | 50.5 ± 0.88
498.07 K | 50.7 ± 0.89

CCCCCO [pentan-1-ol]
Details | vapor or sublimation pressure [kPa]
384.45 K | 40 ± 1.1
384.85 K | 40.01 ± 1
392.76 K | 54.41 ± 1.1
398.11 K | 66.15 ± 1.2
400.95 K | 72.93 ± 1.3
404.59 K | 82.75 ± 1.3
407.17 K | 90.21 ± 1.4
410.73 K | 101.2 ± 1.4

CCCCCCCCCCCC [dodecane]
Details | vapor or sublimation pressure
453.92 K | 40.08 ± 0.86 kPa and 40 ± 1.1 kPa
456.87 K | 43.58 ± 0.87 kPa
459.31 K | 46.71 ± 0.89 kPa
461.72 K | 49.93 ± 0.92 kPa
465.47 K | 55.35 ± 0.93 kPa
467.52 K | 58.41 ± 0.96 kPa
470.69 K | 63.63 ± 0.99 kPa
474.33 K | 69.97 ± 1 kPa
478.47 K | 77.75 ± 1 kPa

CCCCCCCCCC [decane]
Details | vapor or sublimation pressure [kPa]
414.08 K | 40 ± 0.9
414.18 K | 40 ± 1.1
420.5 K | 48.74 ± 0.93
425.83 K | 57.04 ± 0.98
431.14 K | 66.32 ± 1
435.6 K | 75.05 ± 1.1
439.77 K | 83.97 ± 1.1
443.51 K | 92.72 ± 1.2
446.01 K | 98.88 ± 1.2

CCCCCCCCCCO [decan-1-ol]
Details | vapor or sublimation pressure [kPa]
469.23 K | 40 ± 1.1
469.83 K | 40.03 ± 0.91
472.98 K | 44.4 ± 0.92
475.4 K | 47.97 ± 0.94
476.8 K | 50.19 ± 0.94
479.42 K | 54.07 ± 0.94
481.36 K | 57.04 ± 0.95
484.05 K | 61.26 ± 0.96
487.9 K | 67.43 ± 1
491.16 K | 73.44 ± 1.1
492.56 K | 76.32 ± 1.1
494.46 K | 79.92 ± 1.1
496.88 K | 85.24 ± 1.1

CCCCCCCCC [nonane]
Details | vapor or sublimation pressure [kPa]
392.17 K | 40 ± 1.1
392.77 K | 39.96 ± 0.9
399.76 K | 49.24 ± 0.94
404.65 K | 58.04 ± 1
409.14 K | 66.68 ± 1.1
413.23 K | 75.48 ± 1.1
417.05 K | 84.18 ± 1.2
420.83 K | 93.72 ± 1.3
423.88 K | 101.7 ± 1.3

CCCCCCCCO [octan-1-ol]
Details | vapor or sublimation pressure [kPa]
436.67 K | 40 ± 1.1
437.67 K | 40.08 ± 0.92
443.61 K | 48.62 ± 0.93
445.86 K | 52.15 ± 0.99
450.45 K | 60.03 ± 1
454.35 K | 67.6 ± 1.1
457.08 K | 74.25 ± 1.2
460.31 K | 81.52 ± 1.2
463.5 K | 89.16 ± 1.2
466.8 K | 97.64 ± 1.3

CCO [ethanol]
Details | vapor or sublimation pressure [kPa]
351.44 K | 101.3 ± 2.2

CCCCCCCO [heptan-1-ol]
Details | vapor or sublimation pressure [kPa]
419.4 K | 40 ± 1.1
420.4 K | 40.12 ± 0.96
423 K | 44.2 ± 0.96
426.27 K | 49.44 ± 1
430.35 K | 56.78 ± 1.1
433.75 K | 63.5 ± 1.1
438.22 K | 73.4 ± 1.2
441.44 K | 81.04 ± 1.2
444.34 K | 88.14 ± 1.2

CC(C)CC(C)(C)C [2,2,4-trimethylpentane]
Details | vapor or sublimation pressure [kPa]
372.26 K | 101.3 ± 2.2

CCCCCCO [hexan-1-ol]
Details | vapor or sublimation pressure [kPa]
402.36 K | 40 ± 1.1
403.66 K | 40.02 ± 1.1
407.89 K | 48.72 ± 1.1
413.31 K | 58.84 ± 1.1
418.35 K | 69.27 ± 1.1
421.9 K | 77.4 ± 1.2
425.15 K | 85.63 ± 1.3
427.54 K | 92.07 ± 1.6
429.19 K | 99.78 ± 2

CCCCCCCCCCC [undecane]
Details | vapor or sublimation pressure [kPa]
434.5 K | 40 ± 1.1
434.6 K | 40.04 ± 0.88
438.71 K | 45.18 ± 0.89
442.2 K | 50.04 ± 0.92
445.4 K | 54.82 ± 0.95
448.68 K | 60.13 ± 0.98
451.59 K | 65.09 ± 1
454.55 K | 70.48 ± 1.1
458.59 K | 78.59 ± 1.1
